In article PMC3428910 (Bioorganic & medicinal chemistry letters, 2006):

Biological target: T1, human glutathione reductase (hGR) (Homo sapiens, UniProt P00390)
T1 sequence (P00390 44-522): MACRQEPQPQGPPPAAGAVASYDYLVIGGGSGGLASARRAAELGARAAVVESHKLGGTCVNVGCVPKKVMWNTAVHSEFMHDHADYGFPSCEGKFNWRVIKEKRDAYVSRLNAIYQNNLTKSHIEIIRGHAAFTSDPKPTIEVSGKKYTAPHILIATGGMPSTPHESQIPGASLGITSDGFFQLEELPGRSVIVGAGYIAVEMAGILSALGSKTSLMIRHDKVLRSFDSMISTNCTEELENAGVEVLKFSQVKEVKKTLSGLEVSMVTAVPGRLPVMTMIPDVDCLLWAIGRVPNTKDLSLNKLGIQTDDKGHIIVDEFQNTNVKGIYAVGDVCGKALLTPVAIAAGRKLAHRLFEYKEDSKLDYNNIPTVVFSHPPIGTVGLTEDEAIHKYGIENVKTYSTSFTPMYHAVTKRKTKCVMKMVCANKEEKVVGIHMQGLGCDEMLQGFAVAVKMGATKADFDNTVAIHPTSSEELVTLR
Experiment: Human glutathione reductase inhibition
Format: biochemical
Conditions: GR IC50/TR IC50

Selectivity for TR: >4
SMILES: CC(C)(C)c1cc(CN2CCCCCC2)cc(C(C)(C)C)c1O [Compound 7c]
